Experiment [1] deals with SMARCA2 (Homo sapiens, UniProt P51531). The experiment can be described thus: MSD SMARCA2 degradation in A549 cell line. It is filed as cell-based. The settings on record: 24 h; for Dmax: A549, A549 cells; for DC50: A549 cells, read-out: SMARCA2 MSD A549 degradation 24 h: Average external-Abs DC50. The procedure, abridged:
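A549 cells treated 24 h with compound at final 0.152-1000 nM (3-fold series, DMSO control). Lysates analyzed by MSD immunoassay using anti-SMARCA2/BRM detection and SULFO-TAG secondary antibodies; maximal degradation (Dmax %) reported as letter bins.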

Experiment [2] concerns the target T1, SMARCA4 (Homo sapiens, UniProt P51532).
T1 construct: SMARCA2 and SMARCA4 protein degradation in MV4-11 cells; endogenous in cells; host or cells: MV4-11
Briefly: SMARCA4 Western blot MV4-11 degradation. In kind it is cell-based. The settings on record: 24 h; for Dmax: MV4-11, MV4-11 cells, read-out: SMARCA4 WB MV411 degradation 24 h: Average Dmax %; for DC50: MV4-11 cells, read-out: SMARCA4 WB MV411 degradation 24 h: Average external-Abs DC50. The procedure, abridged: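 MV4-11 cells treated with compound for 24 h, lysed in RIPA with protease/phosphatase inhibitors, and SMARCA2 and SMARCA4 (BRG1) levels assessed by Western blot with β-actin loading control and LI-COR fluorescent read-out. Maximal degradation (Dmax %) after 24 h binned into letter codes.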

Molecules are shown by their SMILES.

T1 sequence (P51532 whole entry): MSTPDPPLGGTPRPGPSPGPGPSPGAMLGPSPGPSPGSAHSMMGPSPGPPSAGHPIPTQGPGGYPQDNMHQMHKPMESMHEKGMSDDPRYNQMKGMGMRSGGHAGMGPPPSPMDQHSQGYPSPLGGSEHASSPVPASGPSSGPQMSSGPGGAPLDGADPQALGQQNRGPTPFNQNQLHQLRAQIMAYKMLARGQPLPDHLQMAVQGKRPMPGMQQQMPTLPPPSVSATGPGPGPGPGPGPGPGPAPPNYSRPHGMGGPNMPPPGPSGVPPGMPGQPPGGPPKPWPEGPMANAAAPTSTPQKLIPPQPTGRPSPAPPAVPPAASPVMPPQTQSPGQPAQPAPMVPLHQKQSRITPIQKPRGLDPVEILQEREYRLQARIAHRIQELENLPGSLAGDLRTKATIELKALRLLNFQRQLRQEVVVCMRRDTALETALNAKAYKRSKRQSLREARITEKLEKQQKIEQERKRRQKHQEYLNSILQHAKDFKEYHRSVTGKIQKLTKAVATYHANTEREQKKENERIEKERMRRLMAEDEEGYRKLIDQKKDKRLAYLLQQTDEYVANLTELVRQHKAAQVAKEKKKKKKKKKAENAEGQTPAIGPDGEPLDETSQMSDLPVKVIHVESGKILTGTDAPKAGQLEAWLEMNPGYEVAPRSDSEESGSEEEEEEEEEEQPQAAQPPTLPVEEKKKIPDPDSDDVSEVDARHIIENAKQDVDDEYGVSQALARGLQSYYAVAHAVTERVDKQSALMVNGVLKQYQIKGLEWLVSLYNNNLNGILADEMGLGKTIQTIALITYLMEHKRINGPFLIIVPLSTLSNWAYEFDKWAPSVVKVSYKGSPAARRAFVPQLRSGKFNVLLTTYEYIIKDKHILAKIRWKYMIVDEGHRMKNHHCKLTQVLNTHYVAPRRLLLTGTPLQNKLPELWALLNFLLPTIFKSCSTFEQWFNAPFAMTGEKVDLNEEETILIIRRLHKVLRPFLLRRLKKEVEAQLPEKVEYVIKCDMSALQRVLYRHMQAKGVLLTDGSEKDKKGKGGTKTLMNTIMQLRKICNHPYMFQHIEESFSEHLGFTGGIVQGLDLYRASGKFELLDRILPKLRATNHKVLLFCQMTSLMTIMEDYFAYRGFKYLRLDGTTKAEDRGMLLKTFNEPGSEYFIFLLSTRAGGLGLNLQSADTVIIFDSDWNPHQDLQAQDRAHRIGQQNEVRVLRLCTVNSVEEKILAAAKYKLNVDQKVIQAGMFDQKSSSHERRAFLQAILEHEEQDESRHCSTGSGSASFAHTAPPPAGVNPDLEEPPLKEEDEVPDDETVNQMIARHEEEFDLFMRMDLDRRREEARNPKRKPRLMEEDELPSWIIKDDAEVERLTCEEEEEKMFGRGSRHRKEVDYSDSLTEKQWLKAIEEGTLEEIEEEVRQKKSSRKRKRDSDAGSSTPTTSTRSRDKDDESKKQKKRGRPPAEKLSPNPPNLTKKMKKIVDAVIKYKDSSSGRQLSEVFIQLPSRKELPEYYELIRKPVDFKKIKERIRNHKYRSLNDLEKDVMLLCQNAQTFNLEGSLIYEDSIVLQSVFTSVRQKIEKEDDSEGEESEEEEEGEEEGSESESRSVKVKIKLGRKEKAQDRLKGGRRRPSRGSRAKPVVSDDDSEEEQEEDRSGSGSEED
Chain of SMARCA2 (P51531 whole entry): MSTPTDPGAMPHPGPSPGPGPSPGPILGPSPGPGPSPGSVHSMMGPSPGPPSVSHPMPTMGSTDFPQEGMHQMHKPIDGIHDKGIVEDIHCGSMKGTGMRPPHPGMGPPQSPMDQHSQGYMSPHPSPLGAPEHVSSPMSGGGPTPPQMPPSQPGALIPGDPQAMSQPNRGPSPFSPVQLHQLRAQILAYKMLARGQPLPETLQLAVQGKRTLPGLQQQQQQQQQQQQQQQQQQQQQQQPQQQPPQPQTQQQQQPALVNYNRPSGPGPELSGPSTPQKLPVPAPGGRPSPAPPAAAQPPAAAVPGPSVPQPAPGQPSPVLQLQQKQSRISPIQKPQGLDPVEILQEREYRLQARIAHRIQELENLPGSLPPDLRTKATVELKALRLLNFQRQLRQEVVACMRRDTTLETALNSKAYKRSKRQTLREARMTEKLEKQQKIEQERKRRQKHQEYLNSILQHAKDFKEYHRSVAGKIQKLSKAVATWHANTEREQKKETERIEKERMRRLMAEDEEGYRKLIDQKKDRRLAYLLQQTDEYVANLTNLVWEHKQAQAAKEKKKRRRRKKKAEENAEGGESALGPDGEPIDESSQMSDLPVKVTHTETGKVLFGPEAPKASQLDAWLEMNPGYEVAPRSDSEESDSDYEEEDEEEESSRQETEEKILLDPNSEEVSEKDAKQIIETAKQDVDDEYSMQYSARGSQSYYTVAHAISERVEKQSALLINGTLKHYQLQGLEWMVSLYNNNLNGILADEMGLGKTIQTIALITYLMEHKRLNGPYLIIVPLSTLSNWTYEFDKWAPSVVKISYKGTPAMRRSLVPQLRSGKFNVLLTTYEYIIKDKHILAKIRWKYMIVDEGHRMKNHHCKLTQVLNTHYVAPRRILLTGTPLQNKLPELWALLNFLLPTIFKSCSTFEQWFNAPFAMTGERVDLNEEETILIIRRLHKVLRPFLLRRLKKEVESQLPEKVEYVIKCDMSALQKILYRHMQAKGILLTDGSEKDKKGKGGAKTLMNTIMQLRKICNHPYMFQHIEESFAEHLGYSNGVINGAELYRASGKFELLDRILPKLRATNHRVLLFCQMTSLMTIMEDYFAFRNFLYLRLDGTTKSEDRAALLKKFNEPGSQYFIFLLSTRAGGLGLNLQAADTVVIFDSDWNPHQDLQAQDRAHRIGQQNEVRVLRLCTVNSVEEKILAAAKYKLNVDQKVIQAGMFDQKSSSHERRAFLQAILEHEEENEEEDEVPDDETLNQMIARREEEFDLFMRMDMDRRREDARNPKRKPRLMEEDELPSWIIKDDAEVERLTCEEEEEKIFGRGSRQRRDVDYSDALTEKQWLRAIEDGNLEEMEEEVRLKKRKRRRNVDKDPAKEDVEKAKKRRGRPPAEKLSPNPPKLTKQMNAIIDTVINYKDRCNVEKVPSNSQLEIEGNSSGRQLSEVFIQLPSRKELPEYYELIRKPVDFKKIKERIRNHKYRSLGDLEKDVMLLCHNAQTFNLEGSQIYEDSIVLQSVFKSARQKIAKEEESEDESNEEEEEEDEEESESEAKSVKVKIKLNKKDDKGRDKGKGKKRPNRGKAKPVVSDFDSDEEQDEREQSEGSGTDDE

`Cc1ncsc1-c1ccc(CNC(=O)[C@@H]2C[C@@H](O)CN2C(=O)[C@@H](NC(=O)C2CCN(C(=O)c3cnc(N4C5CCC4CN(c4cc(-c6ccccc6O)nnc4N)C5)nc3)CC2)C(C)(C)C)cc1` [I-342, 1-[2-[3-[3-amino-6-(2-hydroxyphenyl)pyridazin-4-yl]-3,8-diazabicyclo [3.2.1]octan-8-yl]pyrimidine-5-carbonyl]-N-[(1S)-1-[(2S,4R)-4-hydroxy-2-[[4-(4-methylthiazol-5-yl)phenyl]methylcarbamoyl]pyrrolidine-1-carbonyl]-2,2-dimethyl-propyl]piperidine-4-carboxamide]: the Dmax is below 50% in experiment [1] and 70 to 90% in experiment [2]. Besides, the values for the DC50 in experiment [1] and in experiment [2] were above 1000 nM and 100 to 500 nM, respectively.

For the compound `Cc1ncsc1-c1ccc(CNC(=O)[C@@H]2C[C@@H](O)CN2C(=O)[C@@H](NC(=O)N2CCN(C(=O)c3cnc(N4C5CCC4CN(c4cc(-c6ccccc6O)nnc4N)C5)nc3)CC2)C(C)(C)C)cc1` [I-343], in experiment [1], the Dmax is below 50% and the DC50 is above 1000 nM. In addition, in experiment [2], the Dmax is above 90% and the DC50 lay within 100 to 500 nM.

Regarding `Cc1ncsc1-c1ccc(CNC(=O)[C@@H]2C[C@@H](O)CN2C(=O)[C@@H](NC(=O)C(=O)N2CCC(c3cnc(N4C5CCC4CN(c4cc(-c6ccccc6O)nnc4N)C5)nc3)CC2)C(C)(C)C)cc1` [I-344], in experiment [1], the Dmax is below 50% and the DC50 was above 1000 nM. In experiment [2], the Dmax fell in the range of 50 to 70% and the DC50 is above 1000 nM.

For `Cc1cc(CC(=O)N[C@H](C(=O)N2C[C@H](O)C[C@H]2C(=O)NCc2ccc(-c3scnc3C)cc2)C(C)(C)C)ccc1-c1cnc(N2C3CCC2CN(c2cc(-c4ccccc4O)nnc2N)C3)nc1` [I-345], in experiment [1], the Dmax was above 90% and the DC50 is below 100 nM. Moreover, in experiment [2], the Dmax is above 90% and the DC50 was below 100 nM.

`Cc1ncsc1-c1ccc(CNC(=O)[C@@H]2C[C@@H](O)CN2C(=O)C(NC(=O)C[C@H]2CC[C@@H](N3CCC(c4cnc(N5C6CCC5CN(c5cc(-c7ccccc7O)nnc5N)C6)nc4)CC3)CC2)C(C)(C)C)cc1` (some centres unmarked) [I-346]: in experiment [1], the Dmax was above 90% and the DC50 was in the range of 100 to 500 nM. For the same compound, in experiment [2], the Dmax was 70 to 90% and the DC50 was below 100 nM.

Turning to `Cc1ncsc1-c1ccc(CNC(=O)[C@@H]2C[C@@H](O)CN2C(=O)[C@@H](NC(=O)[C@H]2CC[C@@H](N3CCC(c4cnc(N5C6CCC5CN(c5cc(-c7ccccc7O)nnc5N)C6)nc4)CC3)CC2)C(C)(C)C)cc1` [I-347], in experiment [1], the Dmax lay within 70 to 90% and the DC50 fell in the range of 100 to 500 nM. In experiment [2], the Dmax is 50 to 70% and the DC50 is above 1000 nM.

For `Cc1ncsc1-c1ccc(CNC(=O)[C@@H]2C[C@@H](O)CN2C(=O)[C@@H](NC(=O)c2ccc(CN3CCC(c4cnc(N5C6CCC5CN(c5cc(-c7ccccc7O)nnc5N)C6)nc4)CC3)cc2)C(C)(C)C)cc1` [I-348], in experiment [1], the Dmax is above 90% and the DC50 was below 100 nM. In experiment [2], the Dmax was above 90% and the DC50 was below 100 nM.

As to `Cc1ncsc1-c1ccc(CNC(=O)[C@@H]2C[C@@H](O)CN2C(=O)[C@@H](NC(=O)N2CCC(N3CCC(c4cnc(N5C6CCC5CN(c5cc(-c7ccccc7O)nnc5N)C6)nc4)CC3)CC2)C(C)(C)C)cc1` [I-350, 4-(2-(3-(3-amino-6-(2-hydroxyphenyl)pyridazin-4-yl)-3,8-diazabicyclo [3.2.1]octan-8-yl)pyrimidin-5-yl)-N—((S)-1-((2S,4R)-4-hydroxy-2-((4-(4-methylthiazol-5-yl)benzyl)carbamoyl)pyrrolidin-1-yl)-3,3-dimethyl-1-oxobutan-2-yl)-[1,4′-bipiperidine]-1′-carboxamide], in experiment [1], the Dmax is below 50% and the DC50 was above 1000 nM. In experiment [2], the Dmax is below 50% and the DC50 is above 1000 nM.

`Cc1ncsc1-c1ccc(CNC(=O)[C@@H]2C[C@@H](O)CN2C(=O)[C@@H](NC(=O)CCCCN2CCC(CN3CCC(Cn4cc(-c5cc(-c6ccccc6O)nnc5N)cn4)CC3)CC2)C(C)(C)C)cc1` [I-351]: in experiment [1], the Dmax is below 50% and the DC50 was above 1000 nM. In experiment [2], the Dmax was below 50% and the DC50 is above 1000 nM.

In the case of `Cc1ncsc1-c1ccc(CNC(=O)[C@@H]2C[C@@H](O)CN2C(=O)[C@@H](NC(=O)CCCCN2CCC(C(=O)N3CCC(Cn4cc(-c5cc(-c6ccccc6O)nnc5N)cn4)CC3)CC2)C(C)(C)C)cc1` [I-352], in experiment [1], the Dmax is below 50% and the DC50 was above 1000 nM. In addition, in experiment [2], the Dmax was below 50% and the DC50 is above 1000 nM.

For `Cc1ncsc1-c1ccc(CNC(=O)[C@@H]2C[C@@H](O)CN2C(=O)[C@@H](NC(=O)c2ccc(-c3ccc(N4CCC(Cn5cc(-c6cc(-c7ccccc7O)nnc6N)cn5)CC4)cc3)cc2)C(C)(C)C)cc1` [I-353], in experiment [1], the Dmax was below 50% and the DC50 is above 1000 nM. Besides, in experiment [2], the Dmax lay within 70 to 90% and the DC50 is above 1000 nM.

Turning to `Cc1ncsc1-c1ccc(CNC(=O)[C@@H]2C[C@@H](O)CN2C(=O)[C@@H](NC(=O)[C@H]2CC[C@H](N3CCC(c4cnc(N5C6CCC5CN(c5cc(-c7ccccc7O)nnc5N)C6)nc4)CC3)CC2)C(C)(C)C)cc1` [I-355], in experiment [1], the Dmax was above 90% and the DC50 is 100 to 500 nM. Besides, in experiment [2], the Dmax is 70 to 90% and the DC50 lay within 100 to 500 nM.

As for `Cc1ncsc1-c1ccc(CNC(=O)[C@@H]2C[C@@H](O)CN2C(=O)[C@@H](NC(=O)[C@H]2C[C@H](N3CCC(c4cnc(N5C6CCC5CN(c5cc(-c7ccccc7O)nnc5N)C6)nc4)CC3)C2)C(C)(C)C)cc1` [I-356], the results for the Dmax in experiment [1] and in experiment [2] were 70 to 90% and above 90%, respectively. Moreover, the figures for the DC50 in experiment [1] and in experiment [2] were 100 to 500 nM and below 100 nM, respectively.

As for `Cc1ncsc1-c1ccc(CNC(=O)[C@@H]2C[C@@H](O)CN2C(=O)[C@@H](NC(=O)COCCCc2cnc(N3C4CCC3CN(c3cc(-c5ccccc5O)nnc3N)C4)nc2)C(C)(C)C)cc1` [I-357], in experiment [1], the greatest degradation seen (Dmax) was above 90% and the DC50 lay in the range of 100 to 500 nM. Moreover, in experiment [2], the Dmax is above 90% and the DC50 was below 100 nM.

Turning to `Cc1ncsc1-c1ccc(CNC(=O)[C@@H]2C[C@@H](O)CN2C(=O)[C@@H](NC(=O)[C@H]2C[C@@H](N3CCC(n4cc(-c5cc(-c6ccccc6O)nnc5N)cn4)CC3)C2)C(C)(C)C)cc1` [I-358], in experiment [1], the Dmax was 70 to 90% and the DC50 was 501 to 1000 nM. Moreover, in experiment [2], the Dmax was above 90% and the DC50 lay within 100 to 500 nM.

Regarding `Cc1ncsc1-c1ccc(CNC(=O)[C@@H]2C[C@@H](O)CN2C(=O)[C@@H](NC(=O)[C@H]2C[C@H](N3CCC(n4cc(-c5cc(-c6ccccc6O)nnc5N)cn4)CC3)C2)C(C)(C)C)cc1` [I-359], in experiment [1], the greatest degradation seen (Dmax) is below 50% and the DC50 was above 1000 nM. In experiment [2], the Dmax was below 50% and the DC50 is above 1000 nM.

As for `Cc1ncsc1-c1ccc(CNC(=O)[C@@H]2C[C@@H](O)CN2C(=O)[C@@H](NC(=O)[C@H]2CC[C@@H](N3CCC(n4cc(-c5cc(-c6ccccc6O)nnc5N)cn4)CC3)CC2)C(C)(C)C)cc1` [I-360], in experiment [1], the Dmax is below 50% and the DC50 was above 1000 nM. In addition, in experiment [2], the Dmax lay in the range of 50 to 70% and the DC50 is above 1000 nM.

For the compound `Cc1ncsc1-c1ccc(CNC(=O)[C@@H]2C[C@@H](O)CN2C(=O)[C@@H](NC(=O)[C@H]2CC[C@H](N3CCC(n4cc(-c5cc(-c6ccccc6O)nnc5N)cn4)CC3)CC2)C(C)(C)C)cc1` [I-361], in experiment [1], the Dmax was 50 to 70% and the DC50 was 501 to 1000 nM. In experiment [2], the Dmax was below 50% and the DC50 was above 1000 nM.

For the compound `Cc1ncsc1-c1ccc(CNC(=O)[C@@H]2C[C@@H](O)CN2C(=O)[C@@H](NC(=O)[C@H]2CC[C@@H](c3nccc(N4C5CCC4CN(c4cc(-c6ccccc6O)nnc4N)C5)n3)CC2)C(C)(C)C)cc1` [I-362], in experiment [1], the Dmax was 70 to 90% and the DC50 lay within 501 to 1000 nM. Besides, in experiment [2], the Dmax is above 90% and the DC50 was below 100 nM.

For the compound `Cc1ncsc1-c1ccc(CNC(=O)[C@@H]2C[C@@H](O)CN2C(=O)[C@@H](NC(=O)[C@H]2CC[C@H](c3nccc(N4C5CCC4CN(c4cc(-c6ccccc6O)nnc4N)C5)n3)CC2)C(C)(C)C)cc1` [I-363], in experiment [1], the Dmax is above 90% and the DC50 was in the range of 100 to 500 nM. Moreover, in experiment [2], the Dmax is above 90% and the DC50 was below 100 nM.

For the compound `Cc1ncsc1-c1ccc(CNC(=O)[C@@H]2C[C@@H](O)CN2C(=O)[C@@H](NC(=O)C[C@H]2CC[C@H](c3nccc(N4C5CCC4CN(c4cc(-c6ccccc6O)nnc4N)C5)n3)CC2)C(C)(C)C)cc1` [I-364], in experiment [1], the Dmax was above 90% and the DC50 is 100 to 500 nM. Further, in experiment [2], the Dmax was above 90% and the DC50 is below 100 nM.

Take `Cc1ncsc1-c1ccc(CNC(=O)[C@@H]2C[C@@H](O)CN2C(=O)[C@@H](NC(=O)C[C@H]2CC[C@@H](c3nccc(N4C5CCC4CN(c4cc(-c6ccccc6O)nnc4N)C5)n3)CC2)C(C)(C)C)cc1` [I-365]: in experiment [1], the Dmax was above 90% and the DC50 is 100 to 500 nM. For the same compound, in experiment [2], the Dmax was above 90% and the DC50 was below 100 nM.

`Cc1ncsc1-c1ccc(CNC(=O)[C@@H]2C[C@@H](O)CN2C(=O)[C@@H](NC(=O)CCCN2CCC(c3cnc(N4C5CCC4CN(c4cc(-c6ccccc6O)nnc4N)C5)nc3)CC2)C(C)(C)C)cc1` [I-382]: in experiment [1], the Dmax was below 50% and the DC50 was above 1000 nM. In experiment [2], the Dmax is below 50% and the DC50 was above 1000 nM.

In general, Dmax refers to the largest share of the target that was removed. By DC50 is commonly meant the midpoint of the concentration-degradation curve.

Values taken from patent US12624044B2, “SMARCA degraders and uses thereof” (Kymera Therapeutics, Inc., priority 2019, dated 2026).
